Results from US10336792B2, “Antimicrobial peptide dendrimers” (priority 2014, dated 2019).
Values after ≈ are worked out from the molar mass of the structure shown. Positions of bridges follow the written chain, without caps; N, C: chain ends. Residues, ends and D or L forms follow the SMILES beside them. Groups on a side chain read outwards from the residue. Chains are numbered I, II in the order given.

Tested on: Pseudomonas aeruginosa (strain PA01)
Experiment: microbe, parasite or virus in culture
Assay type: cell-based
Details: strain
Experimental: Antimicrobial activity was assayed against Bacillus subtilis (strain BR151), Escherichia coli (strain DH5α) and Pseudomonas aeruginosa (strain PA01). Microdilution broth method was used to determine the minimal inhibitory concentration (MIC). A colony of bacteria was grown in LB-medium overnight at 37° C. The concentration was quantified by measuring absorbance at 600 nm and diluted to OD600=0.1 (1×10^8 CFU/mL). The samples were prepared as stock solutions of 1 mg mL^−1 in H2O and diluted serially by ⅔ in nutrient LB in a 96-well microtiterplate (Cornstar, polypropylene, untreated). The sample solutions (50 μL) were mixed with the diluted bacterial suspension with an OD600 nm of 0.001 (50 μL). […] The plates were incubated at 37° C. until satisfactory growth (18-24 h). For each test, two columns of the plate were kept for sterility control (SC, broth only) and growth control (GC, broth with bacterial inoculums, no antibiotics). 10 μL of a solution of MTT (0.1% in H2O) was added to each well. The minimal inhibitory concentration (MIC) was defined as the lowest concentration of the antimicrobial substance (peptide dendrimer) that inhibited visible growth of the tested bacteria (yellow) with the unaided eye. For microbiological study the linear peptide LysTyrLysLysAlaLeuLysLysLeuAlaLysLeuLeu (SEQ ID No. 1) was used as reference.
All peptides were tested for their activity against P. aeruginosa PAO1 in a broth dilution assay (Wiegand, I. et al., 2008, Nat. Protoc., 3, 163-75; Clinical and Laboratory Standards Institute document M7-A7 7th Edition) to determine the MIC (minimal inhibitory concentration) values. The stock solutions of the peptide dendrimers were diluted serially by ⅔ in nutrient LB in 96-well microtiter plates. Bacteria were grown in nutrient LB overnight at 37° C. After dilution the bacteria were added to the peptides and incubated overnight (18-24 h) at 37° C. […] The position of the amino acids between the branching units seems to be optimal if the hydrophobic amino acid is the first counting from C-terminus and the charged one is on the second position. Introducing Ala as additional hydrophobic amino acid reduces activity (MSt-120). […] Also assembling charged or hydrophobic sections between the branching units leads to loss of activity whereas altering L-amino acids to D-amino acids maintains activity leading to the hypothesis that the mechanism of action should not be receptor mediated.

Row | MIC P. aeruginosa PAO1 | Structure (SMILES)
1 | 2 µg/mL (≈ 0.409 µM) | CC(C)C[C@H](NC(=O)[C@H](CCCCN)NC(=O)[C@H](CCCCN)NC(=O)[C@H](CCCCNC(=O)[C@H](CC(C)C)NC(=O)[C@H](CCCCN)NC(=O)[C@H](CC(C)C)NC(=O)[C@H](CCCCNC(=O)[C@H](CC(C)C)NC(=O)[C@H](CCCCN)NC(=O)[C@H](CCCCNC(=O)[C@H](CC(C)C)NC(=O)[C@@H](N)CCCCN)NC(=O)[C@H](CC(C)C)NC(=O)[C@@H](N)CCCCN)NC(=O)[C@H](CC(C)C)NC(=O)[C@H](CCCCN)NC(=O)[C@H](CCCCNC(=O)[C@H](CC(C)C)NC(=O)[C@@H](N)CCCCN)NC(=O)[C@H](CC(C)C)NC(=O)[C@@H](N)CCCCN)NC(=O)[C@H](CC(C)C)NC(=O)[C@H](CCCCN)NC(=O)[C@H](CC(C)C)NC(=O)[C@H](CCCCNC(=O)[C@H](CC(C)C)NC(=O)[C@H](CCCCN)NC(=O)[C@H](CCCCNC(=O)[C@H](CC(C)C)NC(=O)[C@@H](N)CCCCN)NC(=O)[C@H](CC(C)C)NC(=O)[C@@H](N)CCCCN)NC(=O)[C@H](CC(C)C)NC(=O)[C@H](CCCCN)NC(=O)[C@H](CCCCNC(=O)[C@H](CC(C)C)NC(=O)[C@@H](N)CCCCN)NC(=O)[C@H](CC(C)C)NC(=O)[C@@H](N)CCCCN)C(N)=O [YGO-008, (KL)8(KKL)4(KLKL)2(KKKL)] (I: H-KLK([Leu-Lys])KLKLKLKKKL-NH2 / II: H-KLK([Leu-Lys])KLKLKL / III: H-KLK([Leu-Lys])KL / IV: H-KLK([Leu-Lys])KL; amide I:6-IV:C, I:10-II:C, II:6-III:C)
2 | 3 µg/mL (≈ 0.614 µM) | CC(C)C[C@H](NC(=O)[C@H](CCCCN)NC(=O)[C@H](CC(C)C)NC(=O)[C@H](CCCCNC(=O)[C@H](CC(C)C)NC(=O)[C@H](CCCCN)NC(=O)[C@H](CCCCNC(=O)[C@H](CC(C)C)NC(=O)[C@@H](N)CCCCN)NC(=O)[C@H](CC(C)C)NC(=O)[C@@H](N)CCCCN)NC(=O)[C@H](CC(C)C)NC(=O)[C@H](CCCCN)NC(=O)[C@H](CCCCNC(=O)[C@H](CC(C)C)NC(=O)[C@@H](N)CCCCN)NC(=O)[C@H](CC(C)C)NC(=O)[C@@H](N)CCCCN)C(=O)NCCCC[C@H](NC(=O)[C@H](CC(C)C)NC(=O)[C@H](CCCCN)NC(=O)[C@H](CC(C)C)NC(=O)[C@H](CCCCNC(=O)[C@H](CC(C)C)NC(=O)[C@H](CCCCN)NC(=O)[C@H](CCCCNC(=O)[C@H](CC(C)C)NC(=O)[C@@H](N)CCCCN)NC(=O)[C@H](CC(C)C)NC(=O)[C@@H](N)CCCCN)NC(=O)[C@H](CC(C)C)NC(=O)[C@H](CCCCN)NC(=O)[C@H](CCCCNC(=O)[C@H](CC(C)C)NC(=O)[C@@H](N)CCCCN)NC(=O)[C@H](CC(C)C)NC(=O)[C@@H](N)CCCCN)C(=O)N[C@@H](CCCCN)C(=O)N[C@@H](CC(C)C)C(=O)N[C@@H](CCCCN)C(N)=O [YGO-010, (KL)8(KKL)4(KLKL)2(KKLK)] (I: H-KLK([Leu-Lys])KLKLKLKKLK-NH2 / II: H-KLK([Leu-Lys])KLKLKL / III: H-KLK([Leu-Lys])KL / IV: H-KLK([Leu-Lys])KL; amide I:6-IV:C, I:10-II:C, II:6-III:C)
